The target of one test is HDAC1 (Homo sapiens (Human), UniProt Q13547). Conditions: read-out: HDAC1 IC50.
A further test has as its target HDAC8 (Homo sapiens (Human), UniProt Q9BY41). Particulars: read-out: HDAC8 IC50.

Molecules are shown by their SMILES.

HDAC8, sequence (Q9BY41 whole entry): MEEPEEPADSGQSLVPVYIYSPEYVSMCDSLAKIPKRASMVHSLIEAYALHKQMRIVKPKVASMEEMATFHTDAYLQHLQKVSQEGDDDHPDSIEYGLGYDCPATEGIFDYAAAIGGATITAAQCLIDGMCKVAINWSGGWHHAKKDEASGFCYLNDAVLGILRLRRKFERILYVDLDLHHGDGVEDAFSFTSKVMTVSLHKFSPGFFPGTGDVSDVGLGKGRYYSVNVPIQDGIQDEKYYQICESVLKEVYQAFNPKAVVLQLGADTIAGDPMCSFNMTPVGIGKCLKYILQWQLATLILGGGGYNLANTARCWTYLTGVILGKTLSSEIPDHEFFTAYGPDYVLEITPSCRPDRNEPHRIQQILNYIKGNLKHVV
HDAC1, sequence (Q13547 whole entry): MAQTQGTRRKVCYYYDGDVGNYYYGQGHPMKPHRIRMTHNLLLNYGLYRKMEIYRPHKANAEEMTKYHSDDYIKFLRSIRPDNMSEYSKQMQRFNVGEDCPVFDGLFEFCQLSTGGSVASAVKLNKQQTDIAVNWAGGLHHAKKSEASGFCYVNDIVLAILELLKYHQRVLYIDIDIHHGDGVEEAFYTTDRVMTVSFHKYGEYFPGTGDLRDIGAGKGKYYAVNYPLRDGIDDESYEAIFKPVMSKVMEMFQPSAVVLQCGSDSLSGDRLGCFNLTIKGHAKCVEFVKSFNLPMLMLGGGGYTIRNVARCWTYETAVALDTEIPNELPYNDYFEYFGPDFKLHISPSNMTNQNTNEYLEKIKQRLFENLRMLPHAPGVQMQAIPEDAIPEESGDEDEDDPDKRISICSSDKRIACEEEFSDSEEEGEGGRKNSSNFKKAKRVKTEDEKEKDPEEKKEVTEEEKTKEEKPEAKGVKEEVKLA

Consider `C[Si]1(C)CCC(NCc2ccc(-c3noc(C(F)(F)F)n3)cn2)CC1` [Example 436, 1,1-dimethyl-N-({5-[5-(trifluoromethyl)-1,2,4-oxadiazol-3-yl]pyridin-2-yl}methyl)silinan-4-amine], for which the half-inhibitory concentration (IC50) on HDAC1 is 1200 nM; at HDAC8, 4200 nM.
In the case of `Cc1nccn1C(C)C(=O)N(Cc1ccc(-c2noc(C(F)(F)F)n2)cn1)c1cccc(F)c1` (racemic) [Example 390, N-(3-fluorophenyl)-2-(2-methyl-1H-imidazol-1-yl)-N-({5-[5-(trifluoromethyl)-1,2,4-oxadiazol-3-yl]pyridin-2-yl}methyl)propanamide], the values for the IC50 at HDAC1 and at HDAC8 were 430 nM and 1700 nM, respectively.
For the compound `O=C1NCCCCC1NCc1ccc(-c2noc(C(F)(F)F)n2)cn1` (racemic) [Example 377, 3-[({5-[5-(trifluoromethyl)-1,2,4-oxadiazol-3-yl]pyridin-2-yl}methyl)amino]azepan-2-one], the IC50 was 7300 nM at HDAC1 and 3300 nM on HDAC8.
In the case of `CC(C)N1CCCC(C(=O)N(Cc2ccc(-c3noc(C(F)(F)F)n3)cn2)c2cccc(F)c2)C1` (racemic) [Example 61, N-(3-fluorophenyl)-1-isopropyl-N-((5-(5-(trifluoromethyl)-1,2,4-oxadiazol-3-yl)pyridin-2-yl)methyl)piperidine-3-carboxamide], the values for the IC50 on HDAC1 and at HDAC8 were 260 nM and 2000 nM, respectively.
In the case of `O=C1NC(=O)[C@]2(CC[C@H](NCc3ccc(-c4noc(C(F)(F)F)n4)cn3)CC2)N1` [Example 376, (5s,8s)-8-[({5-[5-(trifluoromethyl)-1,2,4-oxadiazol-3-yl]pyridin-2-yl}methyl)amino]-1,3-diazaspiro[4.5]decane-2,4-dione], the IC50 stood at 3400 nM on HDAC1 and 3900 nM at HDAC8.
In the same order, the values of `NC(=O)c1ncccc1NCc1ccc(-c2noc(C(F)(F)F)n2)cn1` [Example 445, 3-[({5-[5-(trifluoromethyl)-1,2,4-oxadiazol-3-yl]pyridin-2-yl}methyl)amino]pyridine-2-carboxamide] are 850 nM and 2200 nM.
Consider `Cc1cccc(N2CCC(NCc3ccc(-c4noc(C(F)(F)F)n4)cc3)CC2)c1` [Example 349, 1-(3-methylphenyl)-N-({4-[5-(trifluoromethyl)-1,2,4-oxadiazol-3-yl]phenyl}methyl)piperidin-4-amine], for which the IC50 on HDAC1 is 730 nM; at HDAC8, 1400 nM.
With `Fc1cc(COc2nc[nH]n2)ccc1-c1noc(C(F)(F)F)n1` [Example 247, 3-(2-fluoro-4-{[(1H-1,2,4-triazol-3-yl)oxy]methyl}phenyl)-5-(trifluoromethyl)-1,2,4-oxadiazole], the results for the IC50 on HDAC1 and at HDAC8 were 5500 nM and 1400 nM, respectively.
Take `O=C(C1CCS(=O)(=O)CC1)N(Cc1cnc(-c2noc(C(F)(F)F)n2)cn1)c1cccc(C(F)(F)F)c1` [Example 470, N-({5-[5-(trifluoromethyl)-1,2,4-oxadiazol-3-yl]pyrazin-2-yl}methyl)-N-[3-(trifluoromethyl)phenyl]tetrahydro-2H-thiopyran-4-carboxamide 1,1-dioxide]: the results for the IC50 at HDAC1 and at HDAC8 were 1100 nM and 10000 nM, respectively.
For `O=C(C1CC1c1cncnc1)N(Cc1ccc(-c2noc(C(F)(F)F)n2)cc1)c1cccc(C(F)(F)F)c1` (racemic) [Example 73, 2-(pyrimidin-5-yl)-N-(4-(5-(trifluoromethyl)-1,2,4-oxadiazol-3-yl)benzyl)-N-(3-(trifluoromethyl)phenyl)cyclopropane-1-carboxamide], the IC50 worked out at 940 nM on HDAC1 and 2200 nM on HDAC8.
In the same order, the values of `Cc1n[nH]c(CC(=O)N(Cc2ccc(-c3noc(C(F)(F)F)n3)cn2)c2cccc(F)c2)n1` [Example 393, N-(3-fluorophenyl)-2-(3-methyl-1H-1,2,4-triazol-5-yl)-N-({5-[5-(trifluoromethyl)-1,2,4-oxadiazol-3-yl]pyridin-2-yl}methyl)acetamide] are 410 nM and 3400 nM.
As to `NC(=O)c1cccc(NCc2ccc(-c3noc(C(F)(F)F)n3)cn2)c1` [Example 449, 3-[({5-[5-(trifluoromethyl)-1,2,4-oxadiazol-3-yl]pyridin-2-yl}methyl)amino]benzamide], the IC50 worked out at 310 nM on HDAC1 and 1900 nM on HDAC8.
Regarding `FC(F)(F)c1nc(-c2cnc(COc3ccc4ccccc4n3)nc2)no1` [Example 473, 2-({5-[5-(trifluoromethyl)-1,2,4-oxadiazol-3-yl]pyrimidin-2-yl}methoxy)quinoline], the values for the IC50 on HDAC1 and at HDAC8 were 160 nM and 45000 nM, respectively.
In the same order, the values of `FC(F)(F)c1nc(-c2ccc(CNC3CCc4ncccc4C3)cc2)no1` (racemic) [Example 351, N-({4-[5-(trifluoromethyl)-1,2,4-oxadiazol-3-yl]phenyl}methyl)-5,6,7,8-tetrahydroquinolin-6-amine] are 520 nM and 680 nM.
`FC(F)(F)c1nc(-c2ccc(N[C@@H]3CCCC[C@H]3c3ccccc3)nc2)no1` [Example 26, N-((1R,2S)-2-Phenylcyclohexyl)-5-(5-(trifluoromethyl)-1,2,4-oxadiazol-3-yl)pyridin-2-amine]: the IC50 on HDAC1 was found to be 4600 nM; at HDAC8 it was 26000 nM.
On the same counts, the results for `O=c1ccc2ccc(C(F)(F)F)cc2n1Cc1ccc(-c2noc(C(F)(F)F)n2)cn1` [Example 388, 7-(trifluoromethyl)-1-({5-[5-(trifluoromethyl)-1,2,4-oxadiazol-3-yl]pyridin-2-yl}methyl)quinolin-2(1H)-one] are 280 nM and 4900 nM.
On to `COC(=O)N1CC(=O)N(Cc2ccc(-c3noc(C(F)(F)F)n3)cn2)c2ccccc21` [Example 472, methyl 3-oxo-4-({5-[5-(trifluoromethyl)-1,2,4-oxadiazol-3-yl]pyridin-2-yl}methyl)-3,4-dihydroquinoxaline-1(2H)-carboxylate], for which the IC50 worked out at 320 nM on HDAC1 and 1400 nM on HDAC8.
In the case of `Cn1nc(C(=O)N(Cc2ccc(-c3noc(C(F)(F)F)n3)cc2)c2cccc(C(F)(F)F)c2)ccc1=O` [Example 88, 1-methyl-6-oxo-N-(4-(5-(trifluoromethyl)-1,2,4-oxadiazol-3-yl)benzyl)-N-(3-(trifluoromethyl)phenyl)-1,6-dihydropyridazine-3-carboxamide], the results for the IC50 on HDAC1 and on HDAC8 were 940 nM and 3000 nM, respectively.
On the same counts, the results for `O=C1NCCN(c2ccc(-c3noc(C(F)(F)F)n3)cn2)C1c1cccc(F)c1` (stereo not shown) [Example 153, 3-(3-fluorophenyl)-4-(5-(5-(trifluoromethyl)-1,2,4-oxadiazol-3-yl)pyridin-2-yl)piperazin-2-one] are 124 nM and 280 nM.
In the same order, the values of `O=C1CC[C@@H](CN2CCOCC2)N1c1ccc(-c2noc(C(F)(F)F)n2)c(F)c1` [Example 189, (S)-1-(3-Fluoro-4-(5-(trifluoromethyl)-1,2,4-oxadiazol-3-yl)phenyl)-5-(morpholinomethyl)pyrrolidin-2-one] are 15000 nM and 6900 nM.
As for `O=C1CCc2cccnc2N1Cc1ccc(-c2noc(C(F)(F)F)n2)cn1` [Example 330, 1-({5-[5-(trifluoromethyl)-1,2,4-oxadiazol-3-yl]pyridin-2-yl}methyl)-3,4-dihydro-1,8-naphthyridin-2(1H)-one], the IC50 at HDAC1 came to 3700 nM; at HDAC8 it was 18000 nM.
As to `FC(F)(F)c1nc(-c2ccnc(OCc3ccno3)c2)no1` [Example 207, 2-(isoxazol-5-ylmethoxy)-4-[5-(trifluoromethyl)-1,2,4-oxadiazol-3-yl]pyridine], the IC50 on HDAC1 came to 1500 nM; at HDAC8, 1300 nM.
`FC(F)(F)c1nc(-c2ccc(CNc3cnoc3)nc2)no1` [Example 434, N-({5-[5-(trifluoromethyl)-1,2,4-oxadiazol-3-yl]pyridin-2-yl}methyl)isoxazol-4-amine]: the IC50 is 1100 nM at HDAC1 and 1200 nM on HDAC8.
In the same order, the values of `Cc1cc(CC(=O)N(Cc2ccc(-c3noc(C(F)(F)F)n3)cn2)c2cccc(F)c2)on1` [Example 59, N-(3-fluorophenyl)-2-(3-methylisoxazol-5-yl)-N-((5-(5-(trifluoromethyl)-1,2,4-oxadiazol-3-yl)pyridin-2-yl)methyl)acetamide] are 210 nM and 1500 nM.
For `CC(C)(C)OC(=O)N(Cc1ccc(-c2noc(C(F)(F)F)n2)cn1)c1cccc(F)c1` [Example 91, tert-butyl (3-fluorophenyl)((5-(5-(trifluoromethyl)-1,2,4-oxadiazol-3-yl)pyridin-2-yl)methyl)carbamate], the values for the IC50 on HDAC1 and on HDAC8 were 1300 nM and 19000 nM, respectively.
Turning to `O=C1CCC[C@@H](c2nc3ccccc3s2)N1c1ccc(-c2noc(C(F)(F)F)n2)cc1` [Example 25, (S)-6-(Benzo[d]thiazol-2-yl)-1-(4-(5-(trifluoromethyl)-1,2,4-oxadiazol-3-1)phenyl)piperidin-2-one], the IC50 worked out at 220 nM on HDAC1 and 740 nM at HDAC8.
As to `O=C1N(CC2CCOCC2)CC(c2ccccc2)N1c1ccc(-c2noc(C(F)(F)F)n2)cc1` (racemic) [Example 422, 4-phenyl-1-(tetrahydro-2H-pyran-4-ylmethyl)-3-{4-[5-(trifluoromethyl)-1,2,4-oxadiazol-3-yl]phenyl}imidazolidin-2-one], the IC50 was determined as 3400 nM on HDAC1 and 4000 nM on HDAC8.
On to `O=C(CC1CNCCO1)N(Cc1ccc(-c2noc(C(F)(F)F)n2)cc1)c1cccc(C(F)(F)F)c1` (racemic) [Example 82, 2-(morpholin-2-yl)-N-(4-(5-(trifluoromethyl)-1,2,4-oxadiazol-3-yl)benzyl)-N-(3-(trifluoromethyl)phenyl)acetamide], for which the IC50 stood at 860 nM on HDAC1 and 2500 nM on HDAC8.
Take `Cn1c(OCc2ccc(-c3noc(C(F)(F)F)n3)c(F)c2)nc2ccccc21` [Example 235, 2-({3-fluoro-4-[5-(trifluoromethyl)-1,2,4-oxadiazol-3-yl]phenyl}methoxy)-1-methyl-1H-benzimidazole]: the IC50 on HDAC1 worked out at 520 nM; at HDAC8, 770 nM.

For the origin of these results see patent US11066396B2 (priority 2016, dated 2021).
